Test results taken from article PMC11672562, “Synthesis and Antibacterial Activity of New 6″-Modified Tobramycin Derivatives” (Antibiotics, 2024).
In brackets after ≈: the same amount, converted by molar mass.

Key:
[1] = test system: E. coli JW5503 kanS EF-G P610L; assay: MIC in LB medium, aminoglycoside-resistant mutant EF-G P610L; assay type: cell-based; details: Escherichia coli, 18 h
Protocol: The determination of the minimum inhibitory concentration (MIC) was performed on three strains from the working collection of MSU: E. coli JW5503 [34], which lacked a kanamycin resistance cassette removed as per the method outlined in [39], and two strains derived from this strain through in vivo selection with kanamycin. The latter strains harbored P610T and P610L substitutions in the fusA gene. For the MIC determination, 100 μL (rows 2–11) and 200 μL (row 1) of LB liquid medium containing a 1:1000 dilution of overnight culture was added to each well of a 96-well transparent plate. Subsequently, 2 μL of a 50 μg/mL antibiotic solution was introduced into the first row, and serial two-fold dilutions were performed across each horizontal row, decreasing the antibiotic concentration incrementally. The final two rows were designated as controls: row 12 contained LB medium without cells or antibiotics, and row 11 contained cells without antibiotics. Following 18 h of incubation at 37 °C with constant agitation, the optical density at 590 nm (A590) was measured using a Victor X5 2030 spectrofluorometer (PerkinElmer, Waltham, MA, USA). The MIC was defined as the antibiotic concentration in the first well where no cell growth occurred. Each experiment was conducted in triplicate for all tested antibiotics.

[2] = test system: E. coli JW5503 transformed with pJC27 plasmids; assay: Translation accuracy reporter (mutant β-galactosidase, X-Gal staining); assay type: cell-based; details: 4a,b, 6a,b and tobramycin 50 mg/mL; streptomycin, kanamycin 5 mg/mL; rifampicin 1 mg/mL
Source text: It is known that tobramycin inhibits protein biosynthesis by the blocking of initiation and inducing translation errors. We have tested whether the new tobramycin derivatives 4a,b and 6a,b retain the ability to induce translation errors. This assay uses an E. coli strain with a plasmid construct that encodes beta-galactosidase in such a way that a functional protein is only synthesized in the presence of translation errors. If the mechanism of action of the antibiotic is related to the translation errors, we observe indigo blue staining along the edge of the inhibition zone because functional b-galactosidase degrades the substrate X-Gal. As a result, if the antibiotic causes translation errors, blue staining forms around the edge of the inhibition zone. […] According to this, an introduction at the 6″-position of the aminoalkylamino or guanidinoalkylamino residues of tobramycin retains an original mechanism of aminoglycoside’s antibacterial activity affecting the protein synthesis.
To qualitatively evaluate translation accuracy in the presence of antibiotics, E. coli JW5503 [34] (kanamycin resistance cassette removed as per) transformed with pJC27 plasmids was utilized. The plasmids encode the β-galactosidase gene containing a mutation in its active center (E537: GAA→GAC/GGG), alongside a control plasmid without the mutation. Active β-galactosidase synthesis could only occur if translation errors were introduced. Petri dishes (9 cm) containing 20 mL of solid LB agar (1.5%) supplemented with chloramphenicol (11.3 μg/mL) and X-Gal (80 μg/mL) were prepared. A secondary layer comprising 3.5 mL of LB agar (0.6%), supplemented with 11.3 μg/mL chloramphenicol and 0.5 mL of liquid culture (A600~1.0), was added and allowed to solidify. Antibiotics were applied to the plates in 1 μL aliquots at the following concentrations: 50 mg/mL for 4a, 4b, 6a, 6b, and tobramycin; 5 mg/mL for streptomycin and kanamycin; and 1 mg/mL for rifampicin. Plates were incubated at 37 °C for 18 h. […] Results were documented using a Samsung Galaxy Tab A71 camera.

NCCNC[C@H]1O[C@H](O[C@@H]2[C@@H](O)[C@H](O[C@H]3O[C@H](CN)[C@@H](O)C[C@H]3N)[C@@H](N)C[C@H]2N)[C@H](O)[C@@H](N)[C@@H]1O [Compound 4a, 6″-(2-Aminoethyamino)-6″-deoxytobramycin acetate]
MIC [1]: 40 µg/mL
induction of translation errors (blue staining at edge of inhibition zone) [2]: caused a blue coloring of the bacterial lawn

NCCCNC[C@H]1O[C@H](O[C@@H]2[C@@H](O)[C@H](O[C@H]3O[C@H](CN)[C@@H](O)C[C@H]3N)[C@@H](N)C[C@H]2N)[C@H](O)[C@@H](N)[C@@H]1O [Compound 4b, 6″-(3-Aminopropyl-1-amino)-6″-deoxytobramycin acetate]
MIC [1]: 80 µg/mL
induction of translation errors (blue staining at edge of inhibition zone) [2]: caused a blue coloring of the bacterial lawn

N=C(N)NCCNC[C@H]1O[C@H](O[C@@H]2[C@@H](O)[C@H](O[C@H]3O[C@H](CN)[C@@H](O)C[C@H]3N)[C@@H](N)C[C@H]2N)[C@H](O)[C@@H](N)[C@@H]1O [Compound 6a, 6″-(2-Guanidinoethylamino)-6″-deoxytobramycin acetate]
MIC [1]: 40 µg/mL
induction of translation errors (blue staining at edge of inhibition zone) [2]: caused a blue coloring of the bacterial lawn

N=C(N)NCCCNC[C@H]1O[C@H](O[C@@H]2[C@@H](O)[C@H](O[C@H]3O[C@H](CN)[C@@H](O)C[C@H]3N)[C@@H](N)C[C@H]2N)[C@H](O)[C@@H](N)[C@@H]1O [Compound 6b, 6″-(3-Guanidinopropyl-1-amino)-6″-deoxytobramycin acetate]
MIC [1]: 80 µg/mL
induction of translation errors (blue staining at edge of inhibition zone) [2]: caused a blue coloring of the bacterial lawn

NC[C@H]1O[C@H](O[C@H]2[C@H](O)[C@@H](O[C@H]3O[C@H](CO)[C@@H](O)[C@H](N)[C@H]3O)[C@H](N)C[C@@H]2N)[C@H](N)C[C@@H]1O [Tobramycin, tobramycin]
MIC [1]: 40 µg/mL (≈ 85.6 µM)
induction of translation errors (blue staining at edge of inhibition zone) [2]: increase the misreading
